Test results from patent publication US8697662B2, “Methods for treating Kaposi sarcoma” (PTC Therapeutics, Inc., priority 2009, dated 2014).
Marks after values point to notes of the source that are not given here.

How the values were obtained:
[1] = tested on: hypoxia-inducible endogenous VEGF expression; assay: Hypoxia-inducible endogenous VEGF expression ELISA in HeLa cells, dose-response EC50 (Table 3); format: cell-based; conditions: Homo sapiens, hypoxic conditions (1% O2), VEGF ELISA of conditioned media
Experimental: The ability of the Compounds to modulate hypoxia-inducible endogenous VEGF expression may be analyzed as follows. VEGF protein levels may be monitored by an ELISA assay (R&D Systems). Briefly, HeLa cells may be cultured for 24-48 hours under hypoxic conditions (1% O2, 5% CO2, balanced with nitrogen) in the presence or absence of a Compound. The conditioned media may then be assayed by ELISA, and the concentration of VEGF calculated from the standard ELISA curve of each assay.
A dose-response analysis may be performed using the ELISA assay and conditions described above. The conditions for the dose-response ELISA are analogous to those described above. A series of, e.g., seven different concentrations may be analyzed. In parallel, a dose-response cytotoxicity assay may be performed using Cell Titer Glo (Promega) under the same conditions as the ELISA to ensure that the inhibition of VEGF expression was not due to the cytotoxicity.

[2] = tested on: soluble VEGF121 and VEGF165 isoforms; assay: ELISA of soluble VEGF121/165 production in HeLa cells under hypoxia or normoxia; format: cell-based, human
Experimental: (§1) Experimental Design. HeLa (human cervical carcinoma) cell cultures were established under normoxic conditions (21% oxygen). HeLa cells increase VEGF production 4- to 5-fold in response to hypoxia. […] At the completion of treatment, the conditioned media were collected and the VEGF protein levels were assayed in an enzyme-linked immunosorbent assay (ELISA) with primary antibodies that recognize the soluble VEGF121 and VEGF165 isoforms (R & D Systems, Minneapolis, Minn., USA). To ensure that decreases in VEGF concentration were not due to cytotoxicity, cultures were assayed using a standard assay ([…]-GLO® Luminescent Cell Viability Assay; Promega, Madison, Wis., USA) that measures total cellular adenosine triphosphate (ATP) concentrations as an indicator of cell viability.

HeLa cells = assay: […]-GLO luminescent cell viability assay in HeLa cultures; format: cell-based, human; conditions: any concentration tested
Experimental: as §1

[3] = tested on: normal human keratinocyte; assay: ATP viability assay in keratinocytes; format: cell-based; conditions: any concentration tested
Experimental: Experimental Design. Nontransformed normal human keratinocyte cell cultures were established under normoxic conditions (21% oxygen). […] At the completion of treatment, cells were assessed for viability with an ATP assay and conditioned media were evaluated for VEGF protein levels by ELISA (as described in Section 9.1.1.1).

[4] = tested on: VEGF189 and VEGF206 isoforms; assay: In-Cell Western and Western blot of matrix associated VEGF189/206 in HT1080 cells; format: cell-based, human; conditions: normoxic, 48 hours
Experimental: Experimental Design. HT1080 (human fibrosacoma) cell cultures were established under normoxic conditions (21% oxygen). HT1080 cells constitutively overproduce VEGF even under normoxic conditions. […] At the completion of treatment, the cells were washed and harvested. Cells were incubated with a primary antibody that recognizes the VEGF189 and VEGF206 isoforms. Infrared-dye labeled antibodies were applied secondarily, and the amounts of VEGF189 and VEGF206 were determined using the IN-CELL WESTERN® assay and ODYSSEY® infrared imaging system (Li-Cor, Lincoln, Nebr., USA); results are expressed as percentage inhibition relative to vehicle treated controls. Conventional Western blotting using the same primary antibody was also performed to confirm the presence of the matrix associated isoforms; for these experiments actin was used as a loading control. Actin is a ubiquitous housekeeping protein that is not known to be post transcriptionally regulated.

SY5Y xenografts = assay: Tumor growth inhibition in subcutaneous SY5Y neuroblastoma xenografts; format: in vivo, athymic nude mice
Experimental: Experimental Design. SY5Y cells are derived from a human neuroblastoma, a childhood tumor arising in neural crest cells. SY5Y cells (1×10^7 cells/mouse) were implanted subcutaneously in male athymic nude mice.
Tumor size was measured by calipers at periodic intervals. When the average tumor size in a group exceeded 2000 mm^3, the mice in the group were sacrificed and excised tumors were assayed for intratumoral VEGF concentration as described in Section 9.1.1.1.

[5] = Quantitative whole-body autoradiography tissue distribution of 14C-Compound #10; format: in vivo; conditions: rats, single oral 50 mg/kg
Experimental: For the QWBA, the carcasses were prepared by immediately freezing them, embedding them in chilled carboxymethylcellulose, and freezing them into blocks. Appropriate cryomicrotome sections of the blocks at 40 μm thickness were collected on adhesive tape. Mounted sections were tightly wrapped and exposed on phosphorimaging screens along with plastic embedded autoradiographic standards. Exposed screens were scanned and the autoradiographic standard image data were sampled to create a calibrated standard curve. Specified tissues, organs, and fluids were analyzed.

HT1080 cells = assay: Migration of cells out of re-plated HT1080 spheroids; format: cell-based, human
Experimental: Experimental Design. […] Pictures were then taken 48 hours to assess the migration and proliferation of the cells across the well's surface.

[6] = target: human-ether-a-go-go-related gene (hERG) current (Homo sapiens, UniProt Q12809); assay: Higher throughput hERG assay; format: biochemical
[7] = 28-day oral toxicity study in rats with 14-day recovery; format: in vivo
Experimental: A battery of genotoxicity studies was also performed. […] The L23 vehicle was used.
Exposures were maximal at 120 mg/kg/day.

[8] = tested on: Chinese hamster ovary (CHO) cells; assay: Chromosome aberration study in CHO cells; format: cell-based; conditions: with and without exogenous metabolic activation
Experimental: (§2) Genotoxicity was assessed in a battery of in vitro and in vivo studies that included a bacterial reverse mutation study, a chromosome aberration study in Chinese hamster ovary (CHO) cells, and a micronucleus study in rats by the oral route. The in vitro studies were performed in the presence and absence of an exogenous metabolic activation system.

[9] = Micronucleus study in rats by the oral route; format: in vivo
Experimental: as §2

[10] = Phase 1 escalating multiple-dose study in healthy volunteers: pharmacokinetics (Table 28); format: in vivo, human
Experimental: The study was performed under the oversight of the French health authorities. The study was not performed under an IND.
Methods. The trial was a Phase 1, randomized, escalating multiple dose, single center study conducted in 2 stages.
Capsules contained 2 mg or 20 mg of active substance.
Capsules contained 20 mg or 25 mg of active substance.
Noncompartmental methods were used to compute Tmax, Cmax, and AUC. Dose proportionality and sex effect were evaluated using ANOVA on log transformed PK parameters using dose, sex, and dose by sex as fixed factors.

in vivo = conditions: both, beagle, dog, po
Experimental: The L23 vehicle was used. […] All studies in the toxicology program were conducted according to GLP regulations.

human-ether-a-go-go-related gene (hERG) current, sequence (Q12809 whole entry): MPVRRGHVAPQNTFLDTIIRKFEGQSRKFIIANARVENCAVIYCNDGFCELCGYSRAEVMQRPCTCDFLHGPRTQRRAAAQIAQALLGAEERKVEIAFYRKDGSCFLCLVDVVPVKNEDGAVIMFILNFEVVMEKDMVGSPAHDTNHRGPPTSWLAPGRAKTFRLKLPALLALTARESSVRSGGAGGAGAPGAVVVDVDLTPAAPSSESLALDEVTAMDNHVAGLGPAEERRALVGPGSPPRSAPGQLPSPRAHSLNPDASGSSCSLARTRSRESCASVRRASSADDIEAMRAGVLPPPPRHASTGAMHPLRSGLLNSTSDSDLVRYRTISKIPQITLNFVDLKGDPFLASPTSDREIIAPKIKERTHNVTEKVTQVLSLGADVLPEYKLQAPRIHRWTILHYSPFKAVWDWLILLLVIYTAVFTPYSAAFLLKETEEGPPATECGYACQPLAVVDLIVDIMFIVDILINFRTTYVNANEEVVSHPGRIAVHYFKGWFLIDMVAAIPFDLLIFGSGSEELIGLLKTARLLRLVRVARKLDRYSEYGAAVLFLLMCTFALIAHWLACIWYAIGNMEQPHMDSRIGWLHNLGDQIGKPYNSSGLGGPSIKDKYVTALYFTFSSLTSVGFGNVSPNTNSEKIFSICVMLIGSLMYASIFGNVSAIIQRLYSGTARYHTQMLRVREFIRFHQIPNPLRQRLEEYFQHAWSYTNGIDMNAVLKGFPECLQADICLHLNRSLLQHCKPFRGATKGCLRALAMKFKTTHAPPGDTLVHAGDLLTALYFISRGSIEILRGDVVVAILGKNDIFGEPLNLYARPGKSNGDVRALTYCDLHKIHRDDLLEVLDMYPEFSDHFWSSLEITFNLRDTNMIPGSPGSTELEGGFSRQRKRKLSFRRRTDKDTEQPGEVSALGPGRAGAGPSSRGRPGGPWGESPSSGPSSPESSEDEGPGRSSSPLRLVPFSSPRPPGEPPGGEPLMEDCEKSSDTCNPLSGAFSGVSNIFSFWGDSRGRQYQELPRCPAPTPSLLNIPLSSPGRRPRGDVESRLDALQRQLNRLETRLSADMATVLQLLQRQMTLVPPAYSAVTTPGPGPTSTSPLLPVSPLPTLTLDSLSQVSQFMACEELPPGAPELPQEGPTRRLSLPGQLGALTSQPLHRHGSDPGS

For COc1ccc(C2c3[nH]c4ccc(Cl)cc4c3CCN2C(=O)Oc2ccc(Cl)cc2)cc1 (racemic) [Compound #10], the EC50 [1] was under 8 nM, the “decrease in VEGF concentrations in conditioned media” value ([2]; normoxic, 48 hours) was 39% and the “inhibition of VEGF production (in words)” value ([2]; stress (hypoxia)-induced VEGF) was “inhibit stress-induced VEGF production”. For the same compound, the “cytotoxicity (cell viability, ATP)” value (HeLa cells) was “No cytotoxicity was observed”, the “toxicity (viability, ATP assay)” value [3] was “No toxicity was observed” and the “inhibition of matrix associated VEGF189 and VEGF206 isoforms (in words)” value [4] was “potent concentration-dependent inhibition”. For the same compound, the “Mean % Inhibition of Intratumoral VEGF vs Vehicle at Sacrifice” value (SY5Y xenografts; 50 mg/kg QD, 250 mg/kg per week (Table 18), oral 5 days per week) was 96* %, the “mean tumor size (in words)” value (SY5Y xenografts; through 15-days of dosing) was “essentially eliminated any increase in mean tumor size” and the “blood-brain barrier penetration (in words)” value [5] was “penetrates the blood-brain barrier”. The signs of toxicity [5] was “no overt signs of toxicity”, the “migration of cells out of the spheroid (in words)” value (HT1080 cells; control spheroids re-plated in the presence of 50 nM) was “blocked in their ability to migrate out of the spheroid” and the “proliferative and migratory capacity after exposure (in words)” value (HT1080 cells; three-week exposure at 50 nM, re-plated in the absence of the compound) was “does not reduce either the proliferative or the migratory capacity”. The “inhibition of hERG current (in words)” value [6] was “negative for meaningful inhibition”, the “mean PT and aPTT” value ([7]; 40 and 120 mg/kg/day, males but not females, 28-day study) was “reversible increases” and the NOAEL at 28 days ([7]; both sexes, Sprague Dawley, rat, in vivo, rats, oral gavage) was 12 mg/kg/day. The “dose at which exposures were maximal” value ([7]; rats, 12, 40, and 120 mg/kg/day, 28 days) was 120 mg/kg/day, the genotoxic effects [8] was “no evidence of genotoxic effects” and the genotoxic effects [9] was “no evidence of genotoxic effects”. The “oral bioavailability (in words)” value [10] was “orally bioavailable”, the “increases in mean Cmax and AUC0-24 with dose (in words)” value ([10]; Stage 1 and Stage 2) was “generally dose proportional” and the “target trough plasma concentration of ~0.1 to […] (in words)” value ([10]; all dose levels) was “achieved”. The “accumulation of Cmax and AUC0-24, Day 1 to Day 7” value ([10]; continuous dosing 7 days) was about 2 fold, the “lag time before appearance in plasma” value ([10]; oral capsules) was about 30 min and the NOAEL at 28 days (in vivo) was 30 mg/kg/day.
